In paper PMC12635197, “Discovery of first-in-class inhibitors of the TRF1:TIN2 protein:protein interaction by fragment screening” (Scientific Reports, 2025):

Assays:
[1] = LC-MS analysis of original compound DMSO stock; format: physicochemical; conditions: negative mode LC-MS
Excerpt: By measuring the R2 values of fragments with and without protein present in the sample, a strong indication of the extent of protein binding can be obtained. […] This increase in R2 was reversed upon addition of the TIN2TBM competitor. […] Nevertheless, given the strong binding activity of the fragment derivative 27 in the CPMG assay, a pure stock of 27 was synthesised and put forward for further characterisation using a quantitative LO-NMR assay to determine the dissociation constant.
Supplementary Figure 3: Negative mode LC-MS analysis of compound 25. The LC-UV
This value aligned with the molecular weight of compound 27 (251 g mol-1), conﬁrming that
(1 picture or pasted object on this page, not shown here)

[2] = molecular target: TRF1TRFH; design: method as in PMID 18202258; conditions: ITC; read-out: dissociation constant of TIN2TBM for TRF1TRFH; cited from earlier work

stability in original screening DMSO stock [1]	Molecule	Kd [2] [nM]
degraded into compound 27	CCOc1ccc(S(=O)(=O)n2ccnc2)c2ccccc12 [Compound 25]	
	Ac-RHFNLAPLGRRRVQSQWASTR-CONH2 (Ac-RHFNLAPLGRRRVQSQWASTR-NH2) [TIN2TBM]	300
